According to ChEMBL document CHEMBL1781988, “Quinolizidinyl derivatives of bi- and tricyclic systems as potent inhibitors of acetyl- and butyrylcholinesterase with potential in Alzheimer's disease” (Eur J Med Chem, 2011):

Key:
Cholinesterase [1] = target: Cholinesterase (Equus caballus, UniProt P81908)
Description: Inhibition of Equine serum BChE using butyrylthiocholine iodide as a substrate after 20 mins by Ellman's assay

Acetylcholinesterase [2] = target: T1, Acetylcholinesterase (Bos taurus, UniProt P23795)
T1 sequence (P23795 whole entry): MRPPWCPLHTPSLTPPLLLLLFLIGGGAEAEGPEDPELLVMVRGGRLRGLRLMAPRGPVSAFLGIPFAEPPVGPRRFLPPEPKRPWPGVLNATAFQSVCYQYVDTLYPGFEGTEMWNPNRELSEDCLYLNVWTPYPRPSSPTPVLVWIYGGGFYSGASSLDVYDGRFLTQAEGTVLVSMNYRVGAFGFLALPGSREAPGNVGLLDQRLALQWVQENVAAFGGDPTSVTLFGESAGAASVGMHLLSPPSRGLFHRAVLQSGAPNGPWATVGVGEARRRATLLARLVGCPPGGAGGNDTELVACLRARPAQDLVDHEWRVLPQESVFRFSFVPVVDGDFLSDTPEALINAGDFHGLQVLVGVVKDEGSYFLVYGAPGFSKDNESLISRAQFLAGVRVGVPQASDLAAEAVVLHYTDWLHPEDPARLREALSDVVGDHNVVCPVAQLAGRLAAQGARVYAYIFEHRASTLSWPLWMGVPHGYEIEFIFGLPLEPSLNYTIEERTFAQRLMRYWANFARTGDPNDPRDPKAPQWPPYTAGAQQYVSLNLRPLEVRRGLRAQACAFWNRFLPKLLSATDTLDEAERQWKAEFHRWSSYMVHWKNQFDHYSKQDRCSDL
Description: Inhibition of bovine erythrocyte AChE using acetylthiocholine iodide as a substrate after 20 mins by Ellman's assay

[3] = Selectivity index, ratio of IC50 for bovine erythrocyte AChE to IC50 for Equine serum BChE
[4] = target: Cholinesterase (Equus caballus) (UniProt P81908); assay: Inhibition of Equine serum BChE using butyrylthiocholine iodide as a substrate at 10 uM after 20 mins by Ellman's assay
Cholinesterase (Equus caballus), sequence (P81908 whole entry): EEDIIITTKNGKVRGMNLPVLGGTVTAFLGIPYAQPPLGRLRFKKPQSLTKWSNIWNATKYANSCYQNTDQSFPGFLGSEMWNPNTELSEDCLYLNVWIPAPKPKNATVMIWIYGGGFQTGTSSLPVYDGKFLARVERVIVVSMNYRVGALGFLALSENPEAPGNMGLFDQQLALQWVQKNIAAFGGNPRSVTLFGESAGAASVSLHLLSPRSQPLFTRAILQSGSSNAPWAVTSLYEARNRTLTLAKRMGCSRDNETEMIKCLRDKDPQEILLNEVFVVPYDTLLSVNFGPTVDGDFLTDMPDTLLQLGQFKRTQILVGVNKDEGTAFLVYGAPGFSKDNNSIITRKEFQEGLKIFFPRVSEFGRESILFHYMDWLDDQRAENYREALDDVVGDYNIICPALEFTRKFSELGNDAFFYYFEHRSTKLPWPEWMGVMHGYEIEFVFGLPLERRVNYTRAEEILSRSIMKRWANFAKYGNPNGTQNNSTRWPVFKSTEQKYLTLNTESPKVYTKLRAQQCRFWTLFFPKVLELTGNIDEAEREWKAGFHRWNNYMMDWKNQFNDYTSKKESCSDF

[5] = target: Muscarinic acetylcholine receptor; assay: Inhibition of muscarinic receptor in rat brain synaptosomes; format: subcellular
Cholinesterase [6] = target: Cholinesterase (Homo sapiens, UniProt P06276)
Cholinesterase (Homo sapiens, UniProt P06276), sequence (P06276 whole entry, looked up): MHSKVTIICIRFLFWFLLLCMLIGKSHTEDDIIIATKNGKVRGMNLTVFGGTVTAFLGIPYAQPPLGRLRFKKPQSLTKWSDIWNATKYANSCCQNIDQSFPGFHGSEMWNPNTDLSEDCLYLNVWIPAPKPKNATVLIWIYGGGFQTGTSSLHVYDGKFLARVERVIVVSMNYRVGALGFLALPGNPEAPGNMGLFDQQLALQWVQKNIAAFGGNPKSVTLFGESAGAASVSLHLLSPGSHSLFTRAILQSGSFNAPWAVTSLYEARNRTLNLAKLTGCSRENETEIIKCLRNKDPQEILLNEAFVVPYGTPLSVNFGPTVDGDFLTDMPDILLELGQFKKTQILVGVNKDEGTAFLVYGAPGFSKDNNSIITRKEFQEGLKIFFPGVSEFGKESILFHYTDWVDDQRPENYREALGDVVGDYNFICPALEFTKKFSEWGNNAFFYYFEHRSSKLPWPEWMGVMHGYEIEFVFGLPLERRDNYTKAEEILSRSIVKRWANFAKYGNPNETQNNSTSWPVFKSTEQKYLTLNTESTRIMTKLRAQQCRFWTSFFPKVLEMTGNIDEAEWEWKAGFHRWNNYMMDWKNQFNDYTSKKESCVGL
Description: Inhibition of human plasma BChE

Acetylcholinesterase [7] = target: T2, Acetylcholinesterase (Homo sapiens, UniProt P22303)
T2 sequence (P22303 whole entry): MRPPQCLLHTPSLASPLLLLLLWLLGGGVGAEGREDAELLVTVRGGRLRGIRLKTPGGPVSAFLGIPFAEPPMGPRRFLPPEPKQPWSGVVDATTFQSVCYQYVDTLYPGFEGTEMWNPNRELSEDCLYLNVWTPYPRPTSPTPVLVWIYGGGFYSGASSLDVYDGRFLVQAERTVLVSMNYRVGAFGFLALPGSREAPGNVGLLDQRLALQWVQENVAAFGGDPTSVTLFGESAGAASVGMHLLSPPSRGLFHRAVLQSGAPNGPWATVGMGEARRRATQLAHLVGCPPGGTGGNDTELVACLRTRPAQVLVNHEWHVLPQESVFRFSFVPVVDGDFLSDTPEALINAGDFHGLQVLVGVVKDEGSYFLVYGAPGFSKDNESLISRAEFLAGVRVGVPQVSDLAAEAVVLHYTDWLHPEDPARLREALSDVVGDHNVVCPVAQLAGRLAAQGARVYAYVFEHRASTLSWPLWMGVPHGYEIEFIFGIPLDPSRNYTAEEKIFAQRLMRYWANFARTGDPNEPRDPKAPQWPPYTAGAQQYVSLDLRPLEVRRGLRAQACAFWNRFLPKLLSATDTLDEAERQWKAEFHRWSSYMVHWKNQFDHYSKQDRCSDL
Description: Inhibition of human plasma AChE

Acetylcholinesterase [8] = target: T2, Acetylcholinesterase; remark: listed apart in the source
Description: Inhibition of human erythrocytes AChE

Cholinesterase (Equus caballus, UniProt P81908), sequence (P81908 whole entry): as the sequence (P81908 whole entry) above

c1ccc2c(c1)c1ccccc1n2C[C@@H]1CCCN2CCCC[C@H]12
IC50 (Cholinesterase [1]): 2000 nM

C1=Cc2ccccc2N(C[C@@H]2CCCN3CCCC[C@H]23)c2ccccc21
IC50 (Acetylcholinesterase [2]): 8300 nM
Ratio IC50 [3]: 3.8
IC50 (Cholinesterase [1]): 2200 nM

C[N+]12CCCC[C@@H]1[C@H](CC1c3ccccc3Sc3ccccc31)CCC2 (stereo partly specified)
IC50 (Cholinesterase [1]): 410 nM

COc1ccc2nc3cc(Cl)ccc3c(NCCSC[C@@H]3CCCN4CCCC[C@H]34)c2c1
IC50 (Acetylcholinesterase [2]): 840 nM
Ratio IC50 [3]: 2.5
IC50 (Cholinesterase [1]): 340 nM

O=C(CSC[C@@H]1CCCN2CCCC[C@H]12)N1c2ccccc2Sc2ccccc21
IC50 (Cholinesterase [1]): 430 nM

O=c1ccc2cc(OCCCSC[C@@H]3CCCN4CCCC[C@H]34)ccc2o1
IC50 (Acetylcholinesterase [2]): 5400 nM
Ratio IC50 [3]: 0.06
IC50 (Cholinesterase [1]): 5400 nM

O=C(C[C@H]1CCCN2CCCC[C@H]12)N1c2ccccc2Sc2ccccc21
IC50 (Cholinesterase [1]): 4800 nM

c1ccc2c(c1)[Se]c1ccccc1N2C[C@H]1CCCN2CCCC[C@H]12
IC50 (Cholinesterase [1]): 870 nM

c1ccc2c(c1)CCc1ccccc1N2CSC[C@@H]1CCCN2CCCC[C@H]12
IC50 (Cholinesterase [1]): 860 nM

CN1CCCC(CC2c3ccccc3Sc3ccccc32)C1 (stereo unspecified) [METHIXENE]
IC50 (Cholinesterase [1]): 1600 nM

O=c1ccc2cc(OCCCNC[C@@H]3CCCN4CCCC[C@H]34)ccc2o1
IC50 (Acetylcholinesterase [2]): 6600 nM
inhibition [4]: 40%

O=C(CCSC[C@@H]1CCCN2CCCC[C@H]12)N1c2ccccc2Sc2ccccc21
IC50 (Cholinesterase [1]): 750 nM

O=C(CCCSC[C@@H]1CCCN2CCCC[C@H]12)N1c2ccccc2Sc2ccccc21
IC50 (Acetylcholinesterase [2]): 6800 nM
Ratio IC50 [3]: 9.2
IC50 (Cholinesterase [1]): 740 nM

c1ccc2c(c1)Sc1ccccc1C2C[C@@H]1CCCN2CCCC[C@H]12
IC50 (Acetylcholinesterase [2]): 7000 nM
Ratio IC50 [3]: 47
IC50 (Cholinesterase [1]): 150 nM
IC50 [5]: 100 nM

COc1ccc2nc3cc(Cl)ccc3c(NCCCSC[C@@H]3CCCN4CCCC[C@H]34)c2c1
IC50 (Acetylcholinesterase [2]): 220 nM
Ratio IC50 [3]: 0.32
IC50 (Cholinesterase [1]): 690 nM

c1ccc2c(c1)Sc1ccccc1N2C1CN2CCC1CC2 (stereo unspecified)
IC50 (Cholinesterase [1]): 3000 nM
IC50 [5]: 100 nM

COc1ccc2nc3cc(Cl)ccc3c(SC[C@@H]3CCCN4CCCC[C@H]34)c2c1
IC50 (Cholinesterase [1]): 4700 nM

c1ccc(N(C[C@@H]2CCCN3CCCC[C@H]23)c2ccccc2)cc1
IC50 (Acetylcholinesterase [2]): 8900 nM
Ratio IC50 [3]: 1.1
IC50 (Cholinesterase [1]): 8100 nM

O=C(CCCCSC[C@@H]1CCCN2CCCC[C@H]12)N1c2ccccc2Sc2ccccc21
IC50 (Acetylcholinesterase [2]): 5700 nM
Ratio IC50 [3]: 6.4
IC50 (Cholinesterase [1]): 890 nM

CCN(CC)C(C)C(=O)N1c2ccccc2Sc2ccccc21 (stereo unspecified)
IC50 (Cholinesterase [1]): 840 nM

C(=C1c2ccccc2Sc2ccccc21)[C@@H]1CCCN2CCCC[C@H]12
IC50 (Cholinesterase [1]): 930 nM

c1ccc(C(C[C@@H]2CCCN3CCCC[C@H]23)c2ccccc2)cc1
IC50 (Acetylcholinesterase [2]): 6700 nM
Ratio IC50 [3]: 1.2
IC50 (Cholinesterase [1]): 5500 nM

c1ccc2c(c1)-c1ccccc1C2C[C@@H]1CCCN2CCCC[C@H]12
IC50 (Cholinesterase [1]): 630 nM

O=C1Nc2cccnc2N(C[C@@H]2CCCN3CCCC[C@H]23)c2ccccc21
inhibition [4]: 28%

COc1ccc2nc3cc(Cl)ccc3c(NC[C@@H]3CCCN4CCCC[C@H]34)c2c1
IC50 (Acetylcholinesterase [2]): 7300 nM
Ratio IC50 [3]: 8.4
IC50 (Cholinesterase [1]): 870 nM

C(=C(c1ccccc1)c1ccccc1)[C@@H]1CCCN2CCCC[C@H]12
IC50 (Cholinesterase [1]): 3800 nM

CCN(CC)C(C)CN1c2ccccc2Sc2ccccc21 (stereo unspecified) [ETHOPROPAZINE]
IC50 (Cholinesterase [6]): 300 nM
IC50 (Cholinesterase [1]): 720 nM

C[N+]12CCCC[C@@H]1[C@H](CN1c3ccccc3Sc3ccccc31)CCC2 (stereo partly specified)
IC50 (Cholinesterase [1]): 510 nM

CCCCCCCNC(=O)Oc1ccc2c(c1)[C@]1(C)CCN(C)[C@@H]1N2C [EPTASTIGMINE]
IC50 (Acetylcholinesterase [7]): 22000 nM

COc1ccc2c(c1)N(C(=O)CSC[C@@H]1CCCN3CCCC[C@H]13)c1ccccc1S2
IC50 (Cholinesterase [1]): 1200 nM

O=C1Nc2cccnc2N(CSC[C@@H]2CCCN3CCCC[C@H]23)c2ccccc21
inhibition [4]: 34%

C1=Cc2ccccc2C(=C[C@@H]2CCCN3CCCC[C@H]23)c2ccccc21
IC50 (Acetylcholinesterase [2]): 8300 nM
Ratio IC50 [3]: 4.1
IC50 (Cholinesterase [1]): 2000 nM

c1ccc2c(c1)CCc1ccccc1N2C[C@@H]1CCCN2CCCC[C@H]12
IC50 (Cholinesterase [1]): 2200 nM

O=C(C[C@@H]1CCCN2CCCC[C@H]12)N1c2ccccc2Sc2ccccc21 [HOMOLUPINANOYLPHENOTHIAZINE]
IC50 (Cholinesterase [1]): 3000 nM

OC1(C[C@@H]2CCCN3CCCC[C@H]23)c2ccccc2Sc2ccccc21
IC50 (Cholinesterase [1]): 950 nM

c1ccc2c(c1)Cc1ccccc1N2C[C@@H]1CCCN2CCCC[C@H]12
IC50 (Cholinesterase [1]): 1400 nM

CN(C)CC(C)(C)c1cccc(OC(=O)NCCCCN2CCOCC2)c1
IC50 (Cholinesterase [6]): 9 nM
IC50 (Acetylcholinesterase [7]): 100000 nM
IC50 (Acetylcholinesterase [8]): 100000 nM

c1ccc2c(c1)Sc1ccccc1N2C[C@@H]1CCCN2CCCC[C@H]12 [LUPINYLPHENOTHIAZINE]
IC50 (Cholinesterase [1]): 2000 nM
IC50 [5]: 100 nM

c1ccc2c(c1)Oc1ccccc1N2C[C@@H]1CCCN2CCCC[C@H]12
IC50 (Cholinesterase [1]): 2200 nM

CC(C)c1ccc(NC(=O)Oc2ccc3c(c2)[C@]2(C)CCN(CCc4ccccc4)[C@@H]2N3C)cc1
IC50 (Cholinesterase [6]): 6 nM
IC50 (Acetylcholinesterase [7]): > 30000 nM
IC50 (Acetylcholinesterase [8]): > 30000 nM

c1ccc(C(SC[C@@H]2CCCN3CCCC[C@H]23)c2ccccc2)cc1
IC50 (Cholinesterase [1]): 3300 nM

c1ccc2c(c1)-c1ccccc1C2C[C@H]1CCCN2CCCC[C@H]12
IC50 (Cholinesterase [1]): 1100 nM

FC(F)(F)c1ccc2c(c1)N(C[C@@H]1CCCN3CCCC[C@H]13)c1ccccc1S2
IC50 (Cholinesterase [1]): 4000 nM

c1ccc2c(c1)[Se]c1ccccc1N2C[C@@H]1CCCN2CCCC[C@H]12
IC50 (Cholinesterase [1]): 1100 nM

C(=C1c2ccccc2CCc2ccccc21)[C@@H]1CCCN2CCCC[C@H]12
IC50 (Cholinesterase [1]): 4200 nM

O=c1ccc2cc(OCCCCCSC[C@@H]3CCCN4CCCC[C@H]34)ccc2o1
IC50 (Acetylcholinesterase [2]): 680 nM
Ratio IC50 [3]: 0.12
IC50 (Cholinesterase [1]): 5800 nM

N#Cc1ccc2c(c1)N(CCCN1CCC(O)CC1)c1ccccc1S2 [PERICIAZINE]
IC50 (Acetylcholinesterase [2]): 7000 nM
Ratio IC50 [3]: 30
IC50 (Cholinesterase [1]): 230 nM

CC(SC[C@@H]1CCCN2CCCC[C@H]12)C(=O)N1c2ccccc2Sc2ccccc21 (stereo partly specified)
IC50 (Cholinesterase [1]): 470 nM

O=c1ccc2cc(OCCCCSC[C@@H]3CCCN4CCCC[C@H]34)ccc2o1
IC50 (Acetylcholinesterase [2]): 1200 nM
Ratio IC50 [3]: 0.28
IC50 (Cholinesterase [1]): 4300 nM
